From patent publication US5212159A, “Anticataract composition” (Senju Pharmaceutical Co., Ltd., priority 1991, dated 1993)

System: Streptozotocin-induced Diabetic Cataract
Assay: Inhibitory effect on streptozotocin-induced diabetic cataract (slit-lamp cataract score, Sasaki scale)
Type: in vivo, male SD rats
Description: Streptozotocin (hereafter abbreviated as STZ), 70 mg/kg, was administered intravenously to 28 male SD rats aged 4 weeks to induce diabetes. Thereafter, the animals were divided into three groups (two groups consisting of 10 animals each and a group consisting of 8 animals). […] The lens was examined with a slit lamp under mydriasis with Mydrin-P before the beginning of drug administration and every seven days after initiation of administration. The degree of cataract was scored according to the rating scale of Sasaki et al. (Ophthalmic Res. 15: 185-190, 1983) and the anticataract activity of each drug was tested by time series analysis of variance. Body weights were taken on each observation day. […] Rating scale of Sasaki et al. 0: No abnormality. […] Vacuoles are present in the equator of the lens. […] Vacuoles spread toward the anterior pole beneath the cortex of the anterior lens capsule. […] Vacuole begin to merge. […] The deep layer of the cortex of the anterior lens capsule is cloudy. […] The central part of the lens is milk white in color. […] Virtually the entire lens is milk white in color (mature cataract).

[1] = compared with the control group, 100 mg/kg/day i.p. for 56 days
[2] = day 7 after the beginning of treatment, 100 mg/kg/day i.p.
[3] = day 14 after the beginning of treatment, 100 mg/kg/day i.p.
[4] = day 21 after the beginning of treatment, 100 mg/kg/day i.p.
[5] = day 28 after the beginning of treatment, 100 mg/kg/day i.p.
[6] = day 35 after the beginning of treatment, 100 mg/kg/day i.p.
[7] = day 42 after the beginning of treatment, 100 mg/kg/day i.p.
[8] = day 49 after the beginning of treatment, 100 mg/kg/day i.p.
[9] = day 56 after the beginning of treatment, 100 mg/kg/day i.p.

SMILES: N[C@@H](CCC(=O)N[C@@H](CS)C(=O)NCC(=O)O)C(=O)O [Glutathione, glutathione]
- Degree of progression of cataract, time series analysis of variance [1]: no significant difference from the control group
- Time at which cataract scores were reached [1]: scores of 5 and 6 were reached later than in the control group
- Number of eyes with cataract score 0 (day 0 after the beginning of treatment, 100 mg/kg/day i.p.): 16 eyes
- Number of eyes with cataract score 0 [2]: 7 eyes
- Number of eyes with cataract score 1 [2]: 9 eyes
- Number of eyes with cataract score 0 [3]: 1 eyes
- Number of eyes with cataract score 1 [3]: 13 eyes
- Number of eyes with cataract score 2 [3]: 2 eyes
- Number of eyes with cataract score 1 [4]: 3 eyes
- Number of eyes with cataract score 2 [4]: 13 eyes
- Number of eyes with cataract score 2 [5]: 9 eyes
- Number of eyes with cataract score 3 [5]: 7 eyes
- Number of eyes with cataract score 2 [6]: 3 eyes
- Number of eyes with cataract score 3 [6]: 8 eyes
- Number of eyes with cataract score 4 [6]: 3 eyes
- Number of eyes with cataract score 3 [7]: 11 eyes
- Number of eyes with cataract score 4 [7]: 3 eyes
- Number of eyes with cataract score 3 [8]: 10 eyes
- Number of eyes with cataract score 4 [8]: 3 eyes
- Number of eyes with cataract score 5 [8]: 1 eyes
- Number of eyes with cataract score 3 [9]: 4 eyes
- Number of eyes with cataract score 4 [9]: 6 eyes
- Number of eyes with cataract score 5 [9]: 3 eyes
- Number of eyes with cataract score 6 [9]: 1 eyes
